Measurements as given in publication PMC12430079, “Comprehensive UPLC-MS/MS Method for Quantifying Four Key Intestinal Permeability Markers in Caco-2 Models” (Molecules, 2025).
Read-outs that look alike come from different tables or passages of the source.

Experiments:
Caco-2 cells = conditions: 4 h, 37 °C
physchem = conditions: Recovery under stability condition
Description: These tests included assessing short-term stability at room temperature, long-term stability during storage at −20 °C for up to 45 days, and stability across three freeze-thaw cycles. Additionally, the stability of the analytes was tested in the media used for intestinal permeability assays, specifically HBSS with MES and HEPES buffers at pH 6.0 and 7.4.

Caco-2 cell monolayer = conditions: Caco-2 monolayer, apical pH 6.0 / basolateral pH 7.4, 4 h, without verapamil as inhibitor
in vitro = conditions: human, Caco-2

Compound	Cytotoxicity (LDH release) (Caco-2 cells; 50 µM)	recovery (physchem)	recovery at 36 d (physchem)	Apparent permeability (Papp) A→B (Caco-2 cell monolayer)	Apparent permeability (Papp) B→A (Caco-2 cell monolayer)	Cytotoxicity (LDH release) (Caco-2 cells; 5 µM)	efflux ratio (in vitro)
CC(C)NCC(O)COc1ccc(CC(N)=O)cc1 (stereo not drawn) [Atenolol, atenolol]	did not induce cytotoxicity						
C=C[C@H]1C[N@@]2CC[C@H]1C[C@@H]2[C@@H](O)c1ccnc2ccc(OC)cc12 [Quinidine, quinidine]		87.5 ± 6.3%	86.2 ± 1.2%				
CC(C)NCC(O)COc1cccc2ccccc12 (stereo not drawn) [Propranolol, propranolol]		86.5 ± 21%	87.7 ± 5.12%	high	high	did not induce cytotoxicity	~1
